Results taken from patent US9458162B2, “Cyclic molecules as bruton's tyrosine kinase inhibitors” (Nanjing Allgen Pharma Co. Ltd., priority 2012, dated 2016).

Molecular target: T1, Human BTK enzyme (Homo sapiens, UniProt Q06187)
T1 construct: Reaction Biology Corporation
Assay: BTK inhibitory activity assay at Reaction Biology Corporation, peptide substrate
Assay type: biochemical
Conditions: peptide substrate 20 μM, ATP 10 μM; for inhibition at 0.005 µM: read-out: Inhibition of ALK, IC50 (Inhibitory Activities of examples at 5 nM)

T1 sequence (Q06187 whole entry): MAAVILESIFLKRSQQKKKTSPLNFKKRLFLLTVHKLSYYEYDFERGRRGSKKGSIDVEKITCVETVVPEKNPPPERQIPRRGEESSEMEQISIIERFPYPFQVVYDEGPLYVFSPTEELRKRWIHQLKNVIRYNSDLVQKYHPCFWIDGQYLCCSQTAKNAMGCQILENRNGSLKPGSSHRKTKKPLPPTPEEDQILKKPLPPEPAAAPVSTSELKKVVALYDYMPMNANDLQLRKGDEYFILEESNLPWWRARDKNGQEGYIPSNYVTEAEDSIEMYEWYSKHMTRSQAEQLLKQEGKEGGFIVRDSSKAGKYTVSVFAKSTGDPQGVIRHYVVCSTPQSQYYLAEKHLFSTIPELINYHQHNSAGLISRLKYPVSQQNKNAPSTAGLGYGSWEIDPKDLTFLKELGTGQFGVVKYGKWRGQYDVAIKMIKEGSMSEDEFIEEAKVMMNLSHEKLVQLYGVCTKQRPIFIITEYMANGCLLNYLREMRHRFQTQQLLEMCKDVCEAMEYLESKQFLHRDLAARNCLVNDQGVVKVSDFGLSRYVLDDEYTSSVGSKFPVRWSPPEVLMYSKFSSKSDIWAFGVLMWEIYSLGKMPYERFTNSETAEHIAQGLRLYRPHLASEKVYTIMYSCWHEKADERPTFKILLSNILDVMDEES

| Compound | inhibition at 0.005 µM (compound at 5 nM) [%] | IC50 [nM] | percent inhibition of BTK at 5 nM (compound at 5 nM) [%] |
| --- | --- | --- | --- |
| C=CC(=O)N1CC2(CC(n3nc(-c4ccc(Oc5ccccc5)cc4)c4c(N)ncnc43)C2)C1 [Example 1, 1-(6-(4-Amino-3-(4-phenoxyphenyl)-1H-pyrazolo[3,4-d]pyrimidin-1-yl)-2-azaspiro[3.3]heptan-2-yl)prop-2-en-1-one] | 98.5 | 1.48 |  |
| C=CC(=O)N1CCC2(CC1)CC(n1nc(-c3ccc(Oc4ccccc4)cc3)c3c(N)ncnc31)C2 [Example 2, 1-(2-(4-amino-3-(4-phenoxyphenyl)-1H-pyrazolo[3,4-d]pyrimidin-1-yl)-7-azaspiro[3.5]nonan-7-yl)prop-2-en-1-one] | 80.1 |  |  |
| C=CC(=O)N1CC2(CCC(n3nc(-c4ccc(Oc5ccccc5)cc4)c4c(N)ncnc43)CC2)C1 [Example 3, 1-(7-(4-amino-3-(4-phenoxyphenyl)-1H-pyrazolo[3,4-d]pyrimidin-1-yl)-2-azaspiro[3.5]nonan-2-yl)prop-2-en-1-one] | 96.4 |  |  |
| C=CC(=O)N1CCCC2(CC(n3nc(-c4ccc(Oc5ccccc5)cc4)c4c(N)ncnc43)C2)C1 (stereo not drawn) [Example 4A, 1-(2-(4-amino-3-(4-phenoxyphenyl)-1H-pyrazolo[3,4-d]pyrimidin-1-yl)-6-azaspiro[3.5]nonan-6-yl)prop-2-en-1-one] | 85.7 |  |  |
| C=CC(=O)N1CCCC2(CC(n3nc(-c4ccc(Oc5ccccc5)cc4)c4c(N)ncnc43)C2)C1 (stereo not drawn) [Example 4B, 1-(2-(4-amino-3-(4-phenoxyphenyl)-1H-pyrazolo[3,4-d]pyrimidin-1-yl)-6-azaspiro[3.5]nonan-6-yl)prop-2-en-1-one] |  |  | 97.9 |
